Results on 1 compound are retold here after patent US7531555B2, “Compositions and methods for selective inhibition of nicotine acetylcholine receptors” (University of Florida Research Foundation, Inc., priority 2003, dated 2009).

One test relates to mice. The test is described as follows: Body temperature, nicotine-induced hypothermia. The format is in vivo. As to conditions: for Body temperature Δ° C. (Mean ± SEM): s.c. The protocol:
Animals. Male ICR mice (20-25 g) obtained from Harlan Laboratories (Indianapolis, Ind.) were used throughout the study. Animals were housed in groups of six and had free access to food and water. Adult, male Long-Evans rats (350-460 g), obtained from Harlan (Dublin, Va.), were individually housed in a temperature-controlled (20-22° C.) environment with a 12-hour light-dark cycle (lights on at 7 a.m.). Rats were maintained within the indicated weight range by restricted post-session feeding and had ad libitum water in their home cages. Rats were drug-naive at the beginning of the study. Animals were housed in an AALAC approved facility and the study was approved by the Institutional Animal Care and Use Committee of Virginia Commonwealth University. Body temperature. Rectal temperature was determined by a thermistor probe (inserted 24 mm) and digital thermometer (Yellow Springs Instrument Co., Yellow Springs, Ohio). […] The difference in rectal temperature before and after treatment was calculated for each mouse. The ambient temperature of the laboratory varied from 21-24° C. from day to day. […] Psychopharmacology (Berl), 1995, 117:67-73). Eight to twelve mice were tested in each treatment group and each animal was tested only once. Statistical analysis. Statistical analysis of all analgesic and in vivo studies was performed using either t-test or analysis of variance (ANOVA) with Tukey's test post hoc test when appropriate.

The target of the next test is T1, Rat α3β2 (Rattus norvegicus, UniProt P04757+P12390).
T1 construct: expressed in transfected cells; host or cells: Xenopus laevis oocytes injected with subunit cRNAs; clones from Dr. Jim Boulter (UCLA)
T1 sequence (P04757 26-499): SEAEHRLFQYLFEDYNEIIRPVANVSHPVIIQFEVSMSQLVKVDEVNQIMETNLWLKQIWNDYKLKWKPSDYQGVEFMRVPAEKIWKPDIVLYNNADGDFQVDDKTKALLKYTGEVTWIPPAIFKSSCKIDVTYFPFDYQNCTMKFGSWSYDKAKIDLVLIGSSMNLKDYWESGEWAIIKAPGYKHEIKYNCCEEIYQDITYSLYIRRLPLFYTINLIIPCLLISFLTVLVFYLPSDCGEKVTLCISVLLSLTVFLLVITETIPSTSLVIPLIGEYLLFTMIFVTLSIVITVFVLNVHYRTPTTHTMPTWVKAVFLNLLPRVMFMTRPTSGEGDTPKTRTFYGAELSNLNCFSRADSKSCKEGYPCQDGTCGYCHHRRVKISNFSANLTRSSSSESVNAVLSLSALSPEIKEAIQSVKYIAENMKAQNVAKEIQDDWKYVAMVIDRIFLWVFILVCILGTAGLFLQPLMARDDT
T1 sequence (P12390 25-500): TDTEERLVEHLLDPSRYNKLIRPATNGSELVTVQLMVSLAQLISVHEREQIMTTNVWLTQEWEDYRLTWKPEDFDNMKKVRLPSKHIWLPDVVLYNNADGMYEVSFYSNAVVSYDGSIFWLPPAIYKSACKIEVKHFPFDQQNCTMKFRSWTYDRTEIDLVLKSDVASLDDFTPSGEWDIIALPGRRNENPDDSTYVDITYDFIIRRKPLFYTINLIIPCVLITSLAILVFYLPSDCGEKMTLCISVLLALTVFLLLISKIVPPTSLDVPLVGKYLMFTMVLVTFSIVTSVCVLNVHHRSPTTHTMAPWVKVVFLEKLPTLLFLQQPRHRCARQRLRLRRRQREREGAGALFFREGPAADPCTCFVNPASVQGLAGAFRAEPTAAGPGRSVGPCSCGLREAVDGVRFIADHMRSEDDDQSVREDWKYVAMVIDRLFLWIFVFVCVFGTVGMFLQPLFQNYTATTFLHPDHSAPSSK
Put plainly: Voltage clamp of Xenopus oocytes expressing rat α3β2 nAChR. Format: cell-based. The protocol:
(§1) Mature (>9 cm) female Xenopus laevis African frogs (NASCO, Ft. Atkinson, Wis.) were used as a source of oocytes. Prior to surgery, frogs were anesthetized by placing the animal in a 1.5 g/l solution of MS222 (3-aminobenzoic acid ethyl ester) for 30 minutes. Oocytes were removed from an incision made in the abdomen.
(§2) In order to remove the follicular cell layer, harvested oocytes were treated with 1.25 mg/ml collagenase from Worthington Biochemical Corporation (Freehold, N.J.) for 2 hours at room temperature in calcium-free Barth's solution (88 mM NaCl, 10 mM HEPES pH 7.6, 0.33 mM MgSO4, 0.1 mg/ml gentamicin sulfate). Subsequently, stage 5 oocytes were isolated and injected with 50 nl (5-20 ng) each of the appropriate subunit cRNAs. Recordings were made 2 to 15 days after injection.
(§3) Rat neuronal nAChR clones and mouse muscle nAChR cDNA clones were used. The wild-type clones were obtained from Dr. Jim Boulter (UCLA). The rat α6/3 (Dowell et al. J Neurosci, 2003, 23:8445-8452) clone was obtained from Michael McIntosh (University of Utah) and expressed in Xenopus oocytes in combinations with rat β2 and β3. […] The TM2 domain is understood to line the pore of the channel, with alpha helix structure. The 7′ position may actually be directed away from the actual pore lining, but this residue is highly conserved in all of the nAChR. It is valine in all of them except α9 (isoleucine) and β1, where it is alanine. The TM2 mutation in the α6/3 chimera was corrected by using QuickChange (Stratagene) according to their protocols. The corrected α6/3 chimera sequence was confirmed by restriction diagnostics and by automated fluorescent sequencing (University of Florida core facility). The corrected clone was expressed as above in Xenopus oocytes with β2 and β3 and compared to the wild-type α3 co-expressed with β2 and β3.
(§4) After linearization and purification of cloned cDNAs, RNA transcripts were prepared in vitro using the appropriate mMessage mMachine kit from Ambion Inc. (Austin, Tex.).
(§5) Electrophysiology. The majority of experiments were conducted using OpusXpress 6000A (Axon Instruments, Union City Calif.). OpusXpress is an integrated system that provides automated impalement and voltage clamp of up to eight oocytes in parallel. Cells were automatically perfused with bath solution, and agonist solutions were delivered from a 96-well plate. Both the voltage and current electrodes were filled with 3 M KCl. The agonist solutions were applied via disposable tips, which eliminated any possibility of cross-contamination. Drug applications alternated between ACh controls and experimental applications. Flow rates were set at 2 ml/min for experiments with α7 receptors and 4 ml/min for other subtypes. Cells were voltage-clamped at a holding potential of −60 mV. Data were collected at 50 Hz and filtered at 20 Hz. Agonist applications were 12 seconds in duration followed by 181-second washout periods for α7 receptors and 8 seconds with 241-second wash periods for other subtypes. For some experiments, particularly under conditions where residual inhibition precluded making repeated measurements from single cells (see below), manual oocyte recordings were made as previously described (Papke and Papke Br J of Pharmacol, 2002, 137:49-61). In brief, Warner Instruments (Hamden, Conn.) OC-725C oocyte amplifiers were used, and data were acquired with a minidigi or digidata 1200A with pClamp9 software (Axon Instruments). Sampling rates were between 10 and 20 Hz and the data were filtered at 6 Hz. Cells were voltage clamped at a holding potential of −50 mV.
Experimental protocols and data analysis. Each oocyte received two initial control applications of ACh, an experimental drug application (or co-application of ACh and TMPH), and then follow-up control application(s) of ACh. The control ACh concentrations for α1β1γδ, α3β4, α4β2, α3β2, α3β2α5, α3β2β3, α6/3β2β3 α6β4β3 and α7, receptors were 30 μM, 100 μM, 10 μM, 30 μM, 1 μM 100 μM 100 μM 100 μM and 300 μM, respectively. […]

The target of test [1] is T2, Rat α3β4β3 (Rattus norvegicus, UniProt P04757+P12391+P12392). Put plainly: Voltage clamp of Xenopus oocytes expressing α3β4β3 nAChR. Format: cell-based. More on the design: expressed in transfected cells; host or cells: Xenopus laevis oocytes injected with subunit cRNAs; clones from Dr. Jim Boulter (UCLA). As to the method:
as §1, §2, §3, §4
as §5, with “Cells were voltage clamped at a holding potential of −50 mV.” left out

Test [2] deals with T2, Rat α3β4β3. The test is described as above. The format is cell-based. On the set-up: Rat neuronal nAChR clones and mouse muscle nAChR cDNA clones were used; The wild-type clones were obtained from Dr. Jim Boulter (UCLA). As to the method:
as §1, §2
Rat neuronal nAChR clones and mouse muscle nAChR cDNA clones were used. The wild-type clones were obtained from Dr. Jim Boulter (UCLA). The rat α6/3 (Dowell et al. J Neurosci, 2003, 23:8445-8452) clone was obtained from Michael McIntosh (University of Utah) and expressed in Xenopus oocytes in combinations with rat β2 and β3. […] The TM2 domain is understood to line the pore of the channel, with alpha helix structure. […] The corrected clone was expressed as above in Xenopus oocytes with β2 and β3 and compared to the wild-type α3 co-expressed with β2 and β3. […]

Molecules are shown by their SMILES. Read-outs that look alike come from different tables or passages of the source.

T2 sequence (P04757 26-499): as the sequence (P04757 26-499) above
T2 sequence (P12392 21-495): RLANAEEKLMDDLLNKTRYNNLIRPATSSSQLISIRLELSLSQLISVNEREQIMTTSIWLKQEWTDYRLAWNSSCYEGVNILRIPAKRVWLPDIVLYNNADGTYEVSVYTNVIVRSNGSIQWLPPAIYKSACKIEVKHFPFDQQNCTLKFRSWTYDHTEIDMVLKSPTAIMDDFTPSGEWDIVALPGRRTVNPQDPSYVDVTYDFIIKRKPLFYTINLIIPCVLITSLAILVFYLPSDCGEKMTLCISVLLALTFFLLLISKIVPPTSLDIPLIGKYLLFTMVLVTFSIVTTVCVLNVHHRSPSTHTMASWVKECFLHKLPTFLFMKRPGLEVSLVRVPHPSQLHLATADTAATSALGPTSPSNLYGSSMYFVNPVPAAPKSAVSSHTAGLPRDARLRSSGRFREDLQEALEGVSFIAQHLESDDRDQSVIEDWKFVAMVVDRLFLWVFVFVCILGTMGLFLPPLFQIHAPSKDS
T2 sequence (P12391 31-464): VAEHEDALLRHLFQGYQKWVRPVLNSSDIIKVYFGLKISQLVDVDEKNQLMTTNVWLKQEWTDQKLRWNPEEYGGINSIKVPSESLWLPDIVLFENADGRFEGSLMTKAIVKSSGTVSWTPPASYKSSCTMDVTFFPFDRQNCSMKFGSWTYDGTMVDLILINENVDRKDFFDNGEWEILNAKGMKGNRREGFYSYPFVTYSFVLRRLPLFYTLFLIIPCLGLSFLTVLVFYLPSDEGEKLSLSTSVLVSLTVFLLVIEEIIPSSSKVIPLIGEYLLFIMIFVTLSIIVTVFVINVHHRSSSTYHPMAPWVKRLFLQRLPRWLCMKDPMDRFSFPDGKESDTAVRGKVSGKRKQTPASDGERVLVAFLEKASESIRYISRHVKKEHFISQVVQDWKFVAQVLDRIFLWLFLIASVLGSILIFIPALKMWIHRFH

Regarding `CCCCCCC(=O)OC1CC(C)(C)NC(C)(C)C1` [TMPH, 2,2,6,6-tetramethylpiperidin-4-yl heptanoate], in the test with mice (TMPH 20 mg/kg, nicotine 2.5 mg/kg), the “effect on nicotine-induced hypothermia” value is reported as “not blocked”. Further, the entries for the “Body temperature Δ° C. (Mean ± SEM)” value with mice (TMPH (20 mg/kg)/Nicotine (1.5 mg/kg)) and in the test with mice (TMPH (20 mg/kg)/Saline) were −5.2 ± 0.4 °C and −1.0 ± 0.2 °C, respectively. Further, the “blockade of nicotine-induced hypothermia” value in the test with mice (TMPH @ 20 mg/kg) is 0% blockade @ 20. In the test on mice (s.c. injection, at the indicated doses and times), the “effect of TMPH by itself on body temperature” value was “did not have a significant effect”. For the same compound, on Rat α3β2 (1 μM TMPH alone, after the washout period), the “use-independent inhibition, TMPH applied alone” value is on record as “no detectable effect”. Moreover, the IC50 was determined as 440 ± 90 nM at Rat α3β2 (decrease in net charge, 30 μM ACh co-applied with TMPH, read-out: IC50 (area)); 3700 ± 1200 nM on Rat α3β2 (decrease in peak current amplitude, 30 μM ACh co-applied with TMPH, read-out: IC50 (peak)); 230 ± 30 nM at Rat α3β2 (inhibition still present after 5-minute wash, read-out: IC50 (recovery)); 1400 ± 200 nM at Rat α3β4β3 [1] (decrease in net charge, 100 μM ACh co-applied with TMPH, read-out: IC50 (area)); 1900 ± 200 nM on Rat α3β4β3 [1] (decrease in peak current amplitude, 100 μM ACh co-applied with TMPH, read-out: IC50 (peak)); 30000 nM on Rat α3β4β3 [1] (inhibition still present after 5-minute wash, read-out: IC50 (recovery), 2 site model, site with 85% of the fit). The half-inhibitory concentration (IC50) at Rat α3β4β3 [2] (inhibition still present after 5-minute wash, read-out: IC50 (recovery), 2 site model, site with approximately 15% of the fit) is 1000 nM. Also, at Rat α3β2 (following a 5-minute wash), the reversibility of inhibition result was “virtually no recovery”. Moreover, the figures for the “IC50 net charge/IC50 peak” value at Rat α3β2 (ratio) and at Rat α3β4β3 [1] (ratio) were 0.12 and 0.74, respectively. The “IC50 recovery/IC50 net charge” value at Rat α3β2 (ratio) was found to be 0.52. The “IC50 recovery/IC50 net charge, 2-site model, second value” at Rat α3β4β3 [1] (ratio, recovery site of IC50 30 μM) is reported as 21. The “IC50 recovery/IC50 net charge, 2-site model, first value” at Rat α3β4β3 [2] (ratio, recovery site of IC50 1.0 μM) came to 0.7.
